# Tested on: MV-4-11 cells
# Assay: Gene expression microarray analysis (Affymetrix PrimeView) and GSEA
# Type: cell-based, human
# Design: RFU PODN (11730768_x_at) / Fold change /veh PODN (11730768_x_at) / RFU LINC00158 (11744669_a_at) / Fold change /veh LINC00158 (11744669_a_at) / RFU DUSP10 (11751237_a_at) / Fold change /veh DUSP10 (11751237_a_at) / RFU ID3 (11757404_x_at) / Fold change /veh ID3 (11757404_x_at) / RFU PLEKHG5 (11737974_s_at) / Fold change /veh PLEKHG5 (11737974_s_at) / RFU LRRC4B (11730491_at) / Fold change /veh LRRC4B (11730491_at) / RFU GIMAP4 (11747438_a_at) / Fold change /veh GIMAP4 (11747438_a_at) / RFU KRT8 (11758183_x_at) / Fold change /veh KRT8 (11758183_x_at) / RFU CNN1 (11734310_a_at) / Fold change /veh CNN1 (11734310_a_at) / RFU VPS37D (11726825_at) / Fold change /veh VPS37D (11726825_at) / RFU C10orf10 (11716522_x_at) / Fold change /veh C10orf10 (11716522_x_at) / RFU KIR2DL2 /// KIR2DL4 /// KIR2DL5A /// KIR2DL5B /// KIR2DS1 /// KIR2DS2 /// KIR2DS3 /// KIR2DS4 /// KIR3DL3 /// KIR3DL3 /// KIR3DS1 (11738374_at) / Fold change /veh KIR2DL2 /// KIR2DL4 /// KIR2DL5A /// KIR2DL5B /// KIR2DS1 /// KIR2DS2 /// KIR2DS3 /// KIR2DS4 /// KIR3DL3 /// KIR3DL3 /// KIR3DS1 (11738374_at) / RFU C1QL1 (11718748_at) / Fold change /veh C1QL1 (11718748_at) / RFU TMPRSS4 (11747572_a_at) / Fold change /veh TMPRSS4 (11747572_a_at) / RFU HAMP (11756126_x_at) / Fold change /veh HAMP (11756126_x_at) / RFU RNFT2 (11725882_a_at) / Fold change /veh RNFT2 (11725882_a_at) / RFU NR4A2 (11747474_a_at) / Fold change /veh NR4A2 (11747474_a_at) / RFU ABCC12 (11746883_a_at) / Fold change /veh ABCC12 (11746883_a_at) / RFU TMEM136 (11760407_x_at) / Fold change /veh TMEM136 (11760407_x_at) / RFU CLDN22 /// WWC2 (11732394_at) / Fold change /veh CLDN22 /// WWC2 (11732394_at) / RFU HLA-DPB1 (11760878_x_at) / Fold change /veh HLA-DPB1 (11760878_x_at) / RFU SPINT1 (11716480_a_at) / Fold change /veh SPINT1 (11716480_a_at) / RFU GAP43 (11754022_s_at) / Fold change /veh GAP43 (11754022_s_at) / RFU A4GNT (11735810_at) / Fold change /veh A4GNT (11735810_at) / RFU PRB3 (11715151_x_at) / Fold change /veh PRB3 (11715151_x_at) / RFU TUBB4B (11761932_at) / Fold change /veh TUBB4B (11761932_at) / RFU CAPN14 (11732068_a_at) / Fold change /veh CAPN14 (11732068_a_at) / RFU TMCC2 (11721928_a_at) / Fold change /veh TMCC2 (11721928_a_at) / RFU IRGQ (11745062_a_at) / Fold change /veh IRGQ (11745062_a_at) / RFU FAM174B (11720279_a_at) / Fold change /veh FAM174B (11720279_a_at) / RFU TMPRSS4 (11748680_a_at) / Fold change /veh TMPRSS4 (11748680_a_at) / RFU FAM212B (11763350_a_at) / Fold change /veh FAM212B (11763350_a_at) / RFU PLEKHG5 (11743358_a_at) / Fold change /veh PLEKHG5 (11743358_a_at) / RFU ZSCAN30 (11745921_a_at) / Fold change /veh ZSCAN30 (11745921_a_at) / RFU CMKLR1 (11741424_a_at) / Fold change /veh CMKLR1 (11741424_a_at) / RFU LOC101060620 /// MAPK8IP1 (11723275_at) / Fold change /veh LOC101060620 /// MAPK8IP1 (11723275_at) / RFU SPTSSB (11747773_x_at) / Fold change /veh SPTSSB (11747773_x_at) / RFU PRSS12 (11739890_at) / Fold change /veh PRSS12 (11739890_at) / RFU BIN1 (11741810_x_at) / Fold change /veh BIN1 (11741810_x_at) / RFU WNT11 (11732464_a_at) / Fold change /veh WNT11 (11732464_a_at) / RFU C10orf10 (11716521_a_at) / Fold change /veh C10orf10 (11716521_a_at) / RFU C5orf56 (11738089_at) / Fold change /veh C5orf56 (11738089_at) / RFU CYB561 (11721691_x_at) / Fold change /veh CYB561 (11721691_x_at) / RFU ANKRD19P (11752326_a_at) / Fold change /veh ANKRD19P (11752326_a_at) / RFU OR2T12 /// OR2T33 /// OR2T8 (11738714_s_at) / Fold change /veh OR2T12 /// OR2T33 /// OR2T8 (11738714_s_at) / RFU VCAN (11748164_a_at) / Fold change /veh VCAN (11748164_a_at) / RFU JSRP1 (11732532_at) / Fold change /veh JSRP1 (11732532_at) / RFU KRTAP10-11 (11738290_x_at) / Fold change /veh KRTAP10-11 (11738290_x_at) / RFU MYO3A (11730013_a_at) / Fold change /veh MYO3A (11730013_a_at) / RFU EBF3 (11725865_a_at) / Fold change /veh EBF3 (11725865_a_at) / RFU CAMK2N1 (11719241_x_at) / Fold change /veh CAMK2N1 (11719241_x_at) / RFU C5orf56 (11738088_a_at) / Fold change /veh C5orf56 (11738088_a_at) / RFU OLFML3 (11715873_a_at) / Fold change /veh OLFML3 (11715873_a_at) / RFU LOC100653217 /// NTM (11731650_a_at) / Fold change /veh LOC100653217 /// NTM (11731650_a_at) / RFU MAPK11 (11762145_a_at) / Fold change /veh MAPK11 (11762145_a_at) / RFU FIZ1 (11724087_x_at) / Fold change /veh FIZ1 (11724087_x_at) / RFU OASL (11726364_x_at) / Fold change /veh OASL (11726364_x_at) / RFU SOX15 (11748057_x_at) / Fold change /veh SOX15 (11748057_x_at) / RFU CD79A (11719716_a_at) / Fold change /veh CD79A (11719716_a_at) / RFU HIST1H1D (11736915_at) / Fold change /veh HIST1H1D (11736915_at) / RFU CASKIN2 (11723855_a_at) / Fold change /veh CASKIN2 (11723855_a_at) / RFU LOC730098 (11760151_x_at) / Fold change /veh LOC730098 (11760151_x_at) / RFU OR4N2 (11742367_at) / Fold change /veh OR4N2 (11742367_at) / RFU PRRT2 (11749266_a_at) / Fold change /veh PRRT2 (11749266_a_at) / RFU SNX32 (11753110_a_at) / Fold change /veh SNX32 (11753110_a_at) / RFU CDHR5 (11726645_a_at) / Fold change /veh CDHR5 (11726645_a_at) / RFU RCAN1 (11760418_a_at) / Fold change /veh RCAN1 (11760418_a_at) / RFU FAM167A (11723789_a_at) / Fold change /veh FAM167A (11723789_a_at) / RFU FAM26E (11764081_at) / Fold change /veh FAM26E (11764081_at) / RFU ISYNA1 (11749810_s_at) / Fold change /veh ISYNA1 (11749810_s_at) / RFU ACY1 (11761880_at) / Fold change /veh ACY1 (11761880_at) / RFU 11764098_at / Fold change /veh 11764098_at / RFU SAMD14 (11745864_x_at) / Fold change /veh SAMD14 (11745864_x_at) / RFU NPB (11741838_a_at) / Fold change /veh NPB (11741838_a_at) / RFU TMPRSS6 (11731388_a_at) / Fold change /veh TMPRSS6 (11731388_a_at) / RFU KRTAP10-2 (11738614_at) / Fold change /veh KRTAP10-2 (11738614_at) / RFU ARHGAP8 /// PRR5-ARHGAP8 (11727945_x_at) / Fold change /veh ARHGAP8 /// PRR5-ARHGAP8 (11727945_x_at) / RFU KRTAP5-7 /// NADSYN1 (11734609_at) / Fold change /veh KRTAP5-7 /// NADSYN1 (11734609_at) / RFU RASL12 (11751679_a_at) / Fold change /veh RASL12 (11751679_a_at) / RFU CDKN2B (11736163_a_at) / Fold change /veh CDKN2B (11736163_a_at) / RFU PRF1 (11729649_at) / Fold change /veh PRF1 (11729649_at) / RFU, ZNF638 /// ZNF638-IT1 / Fold change vs veh, ZNF638 /// ZNF638-IT1 / RFU, PANK3 / Fold change vs veh, PANK3 / RFU, SH3YL1 / Fold change vs veh, SH3YL1 / RFU, ZEB2 / Fold change vs veh, ZEB2 / RFU, NRIP1 / Fold change vs veh, NRIP1 / RFU, PTTG1IP / Fold change vs veh, PTTG1IP / RFU, CAPN2 / Fold change vs veh, CAPN2 / RFU, MED14 / Fold change vs veh, MED14 / RFU, SNORA58 / Fold change vs veh, SNORA58 / RFU, C1orf63 / Fold change vs veh, C1orf63 / RFU, LRRFIP1 / Fold change vs veh, LRRFIP1 / RFU, NDUFAF7 / Fold change vs veh, NDUFAF7 / RFU, SLC12A2 / Fold change vs veh, SLC12A2 / RFU, IBTK / Fold change vs veh, IBTK / RFU, ESF1 / Fold change vs veh, ESF1 / Fold change vs veh, TMEM50B / RFU, TAOK1 / Fold change vs veh, TAOK1 / RFU, ACBD3 / Fold change vs veh, ACBD3 / RFU, TMA16 / Fold change vs veh, TMA16 / RFU, RWDD3 / Fold change vs veh, RWDD3 / RFU, BCAT1 / Fold change vs veh, BCAT1 / RFU, EDEM3 / Fold change vs veh, EDEM3 / RFU, TMEM33 / Fold change vs veh, TMEM33 / RFU, WDR75 / Fold change vs veh, WDR75 / RFU, AHCTF1 / Fold change vs veh, AHCTF1 / RFU, TFRC / Fold change vs veh, TFRC / RFU, ZDHHC17 / Fold change vs veh, ZDHHC17 / RFU, NOM1 / Fold change vs veh, NOM1 / RFU, ARL8B / Fold change vs veh, ARL8B / RFU, ZBTB11 / Fold change vs veh, ZBTB11 / RFU, TAMM41 / Fold change vs veh, TAMM41 / RFU, KIAA1704 /// LOC100996395 / Fold change vs veh, KIAA1704 /// LOC100996395 / RFU, ING1 / Fold change vs veh, ING1 / RFU, TRMT61B / Fold change vs veh, TRMT61B / RFU, FUBP3 / Fold change vs veh, FUBP3 / RFU, TP53 / Fold change vs veh, TP53 / RFU, TNKS2 / Fold change vs veh, TNKS2 / RFU, ZFP14 / Fold change vs veh, ZFP14 / RFU, ACTR2 / Fold change vs veh, ACTR2 / RFU, PPP3R1 / Fold change vs veh, PPP3R1 / RFU, PIK3R1 / Fold change vs veh, PIK3R1 / RFU, HNRNPA1 / Fold change vs veh, HNRNPA1 / RFU, RNF170 / Fold change vs veh, RNF170 / RFU, ZNF28 / Fold change vs veh, ZNF28 / RFU, RNGTT / Fold change vs veh, RNGTT / RFU, OGT / Fold change vs veh, OGT / RFU, BRD1 / Fold change vs veh, BRD1 / RFU, MARS / Fold change vs veh, MARS / RFU, ZNF655 / Fold change vs veh, ZNF655 / RFU, FAHD1 / Fold change vs veh, FAHD1 / RFU, BDP1 / Fold change vs veh, BDP1 / RFU, LRRCC1 / Fold change vs veh, LRRCC1 / RFU, ARID1A / Fold change vs veh, ARID1A / RFU, ZNF146 / Fold change vs veh, ZNF146 / RFU, ZNF330 / Fold change vs veh, ZNF330 / RFU, GPN3 / Fold change vs veh, GPN3 / RFU, C9orf123 / Fold change vs veh, C9orf123 / RFU, N4BP2L2 / Fold change vs veh, N4BP2L2 / RFU, ARFIP1 / Fold change vs veh, ARFIP1 / RFU, FAM179B / Fold change vs veh, FAM179B / RFU, BCL10 / Fold change vs veh, BCL10 / RFU, UHRF1BP1L / Fold change vs veh, UHRF1BP1L / RFU, BET1 / Fold change vs veh, BET1 / RFU, CNOT2 / Fold change vs veh, CNOT2 / RFU, ZNF268 / Fold change vs veh, ZNF268 / Fold change vs veh, ZNF507 / RFU, DGCR2 / Fold change vs veh, DGCR2 / RFU, WDSUB1 / Fold change vs veh, WDSUB1 / Fold change vs veh, HSP90B1 /// MIR3652 / RFU, ADSS / Fold change vs veh, ADSS / RFU, GK / Fold change vs veh, GK / RFU, ZNF148 / Fold change vs veh, ZNF148 / RFU, TAF9 / Fold change vs veh, TAF9 / RFU, SLC1A5 / Fold change vs veh, SLC1A5 / RFU, SLMO2 / Fold change vs veh, SLMO2 / RFU, ABCC4 / Fold change vs veh, ABCC4 / RFU, LOC101060439 /// RAP1B / Fold change vs veh, LOC101060439 /// RAP1B / RFU, RFX7 / Fold change vs veh, RFX7 / RFU, GTPBP10 / Fold change vs veh, GTPBP10 / RFU, CNEP1R1 / Fold change vs veh, CNEP1R1 / RFU, BIVM-ERCC5 /// ERCC5 / Fold change vs veh, BIVM-ERCC5 /// ERCC5 / RFU, ILF3 / Fold change vs veh, ILF3 / RFU 11762660_at / Fold change /veh 11762660_at / RFU VCAN (11757783_s_at) / Fold change /veh VCAN (11757783_s_at) / RFU DDX43 (11728927_at) / Fold change /veh DDX43 (11728927_at) / RFU KRT8 (11758188_x_at) / Fold change /veh KRT8 (11758188_x_at) / RFU NKD1 (11759106_at) / Fold change /veh NKD1 (11759106_at) / RFU SRD5A1 (11742802_a_at) / Fold change /veh SRD5A1 (11742802_a_at) / RFU TPSAB1 /// TPSB2 (11721975_s_at) / Fold change /veh TPSAB1 /// TPSB2 (11721975_s_at) / RFU GSTM3 (11746129_a_at) / Fold change /veh GSTM3 (11746129_a_at) / RFU IL23R (11737362_x_at) / Fold change /veh IL23R (11737362_x_at) / RFU TMEM51 (11727254_a_at) / Fold change /veh TMEM51 (11727254_a_at) / RFU PIWIL2 (11732686_x_at) / Fold change /veh PIWIL2 (11732686_x_at) / RFU ORM1 (11744905_x_at) / Fold change /veh ORM1 (11744905_x_at) / RFU CCDC152 (11743942_at) / Fold change /veh CCDC152 (11743942_at) / RFU ECM1 (11717891_a_at) / Fold change /veh ECM1 (11717891_a_at) / RFU IL23R (11748794_a_at) / Fold change /veh IL23R (11748794_a_at) / RFU TNFAIP8L3 (11732012_x_at) / Fold change /veh TNFAIP8L3 (11732012_x_at) / RFU MBOAT4 (11741988_at) / Fold change /veh MBOAT4 (11741988_at) / RFU 11764193_at / Fold change /veh 11764193_at / RFU TMEM53 (11763286_at) / Fold change /veh TMEM53 (11763286_at) / RFU MAGEB2 (11727129_at) / Fold change /veh MAGEB2 (11727129_at) / RFU TMEM200A (11744735_a_at) / Fold change /veh TMEM200A (11744735_a_at) / RFU CCDC152 (11751479_a_at) / Fold change /veh CCDC152 (11751479_a_at) / RFU FAM211A (11726209_a_at) / Fold change /veh FAM211A (11726209_a_at) / RFU RGS16 (11746705_a_at) / Fold change /veh RGS16 (11746705_a_at) / RFU VCAN (11755009_s_at) / Fold change /veh VCAN (11755009_s_at) / RFU RHOB (11743442_s_at) / Fold change /veh RHOB (11743442_s_at) / RFU RGS16 (11720943_a_at) / Fold change /veh RGS16 (11720943_a_at) / RFU RGS16 (11720944_at) / Fold change /veh RGS16 (11720944_at) / RFU, VPS4B / Fold change vs veh, VPS4B / RFU, CREB1 / Fold change vs veh, CREB1 / RFU, DNAJC13 / Fold change vs veh, DNAJC13 / RFU, GNAQ / Fold change vs veh, GNAQ / RFU, CDK5R1 / Fold change vs veh, CDK5R1 / RFU, ZRANB3 / Fold change vs veh, ZRANB3 / RFU, CUL4A / Fold change vs veh, CUL4A / RFU, CCNY / Fold change vs veh, CCNY / RFU, UFL1 / Fold change vs veh, UFL1 / RFU, COG3 / Fold change vs veh, COG3 / RFU, DIAPH2 / Fold change vs veh, DIAPH2 / RFU, SKA2 / Fold change vs veh, SKA2 / RFU, AFF3 / Fold change vs veh, AFF3 / RFU, LMF1 / Fold change vs veh, LMF1 / RFU, IPO11 / Fold change vs veh, IPO11 / RFU, DFFB / Fold change vs veh, DFFB / RFU, FOXP1 / Fold change vs veh, FOXP1 / RFU, CARD8 / Fold change vs veh, CARD8 / RFU, STRN3 / Fold change vs veh, STRN3 / RFU, ADK / Fold change vs veh, ADK / RFU, RASSF2 / Fold change vs veh, RASSF2 / RFU, WIPF1 / Fold change vs veh, WIPF1 / RFU, LARP1B / Fold change vs veh, LARP1B / RFU, RASA1 / Fold change vs veh, RASA1 / RFU, RB1 / Fold change vs veh, RB1 / RFU, PPFIA1 / Fold change vs veh, PPFIA1 / RFU, MAT2A / Fold change vs veh, MAT2A / RFU, CCT5 / Fold change vs veh, CCT5 / RFU, WDR92 / Fold change vs veh, WDR92 / RFU, CUX1 / Fold change vs veh, CUX1 / RFU, TTC7A / Fold change vs veh, TTC7A / RFU, TMEM135 / Fold change vs veh, TMEM135 / RFU, DEPTOR / Fold change vs veh, DEPTOR / RFU, CPM / Fold change vs veh, CPM / RFU, DNAJB6 / Fold change vs veh, DNAJB6 / RFU, CACNA2D3 / Fold change vs veh, CACNA2D3 / RFU, DTX4 / Fold change vs veh, DTX4 / RFU, TFCP2 / Fold change vs veh, TFCP2 / RFU, GMCL1 /// GMCL1P1 / Fold change vs veh, GMCL1 /// GMCL1P1 / RFU, AEBP2 / Fold change vs veh, AEBP2 / RFU, SNHG1 /// SNORD22 /// SNORD25 /// SNORD26 /// SNORD27 /// SNORD28 /// SNORD29 /// SNORD31 / Fold change vs veh, SNHG1 /// SNORD22 /// SNORD25 /// SNORD26 /// SNORD27 /// SNORD28 /// SNORD29 /// SNORD31 / Fold change (Aza/veh), C12orf56 (ProbeSet 11735607_a_at) / Fold change (ACY-1035/veh), C12orf56 (ProbeSet 11735607_a_at) / Fold change (Aza/veh), FGFR1OP (ProbeSet 11751329_s_at) / Fold change (ACY-1035/veh), FGFR1OP (ProbeSet 11751329_s_at) / Fold change (Aza/veh), VPS36 (ProbeSet 11739960_a_at) / Fold change (ACY-1035/veh), VPS36 (ProbeSet 11739960_a_at) / RFU SYPL1 (11715823_x_at) / Fold change /veh SYPL1 (11715823_x_at) / RFU IGFBP7 (11715501_s_at) / Fold change /veh IGFBP7 (11715501_s_at) / RFU REEP3 (11722064_at) / Fold change /veh REEP3 (11722064_at) / RFU IGLL1 (11728026_x_at) / Fold change /veh IGLL1 (11728026_x_at): dose or concentration left out as unconfirmed
# Details: ProbeSet 11758170_s_at; LIST D
smiles,measurement,value
Nc1ccc(-c2cccs2)cc1NC(=O)c1ccc2c(c1)cc(C1CC1)n2CCN1CCOCC1 [ACY-1035],"RFU, DIAPH2",32.47 RFU
